Tests used:
[1] = system: thermal nociceptive response; experiment: Tail flick assay for thermal nociceptive response; assay type: in vivo, female BALB/c mice; settings: fractions 10 mg/kg p.o., diclofenac sodium 50 mg/kg i.p.
Experimental: b. In-vivo efficacy study in pain model using the tail flick Assay for assessment of thermal nociceptive response in female BALB/c mice
Tail Flick Test: Prior to starting the test, the intensity of the beam was adjusted to produce a latency of approximately 3-6 sec. The was performed three times for each animal, at 3- to 5-min intervals, and the average of the three times recorded as the average reaction time (seconds). The light beam was delivered about 15 mm from the tip of the tail for mice. To minimize the chance of tissue trauma from heat exposure, a cut-off time of 10 sec was established, at which time the animal was removed from the test (Curr. Protoc. Neurosci., 2007, 41, 8.9.1). Mice were treated with diclofenac sodium (50 mg/kg. i.p.), a standard analgesic drug, CS-016-C2-F2-F2-F2 (10 mg/kg. p.o), CS-016-C2-F2-F3-F2 (10 mg/kg, p.o). and CS-016-B2 (10 mg/kg, p.o) each group contained three animals (n=3).
Tail Flick Assay in Female BALB/c Mice. […] The data were analysed using graph-pad prism software (8.0.2). […]

[2] = system: paclitaxel (PT) induced neuropathic pain; experiment: Randall Selitto test for mechanical hyperalgesia in paclitaxel induced neuropathic (cancer) pain model; assay type: in vivo, male BALB/c mice; settings: paclitaxel 2 mg/kg i.p. (pain induction), all groups; FIGS. 7a and 7b
Experimental: a. In-Vivo Efficacy Study in Cancer Pain Model Using the Randall Selitto Test for Assessment of Mechanical Hyperalgesia in Male BALB/c Mice
Animals: Male BALB/C mice of weight range 25-30 g were used for evaluation of CS-016-B1 in paclitaxel (PT) induced neuropathic pain. Animals were housed under a 12-hour light/dark cycle in a temperature (65-75° F.; ^˜18-23° C.) and humidity-controlled (40-60%) environment. They were supplied with free access to the food and water (ad libitum). Prior to initiation of study all the animals were acclimatized for one week under standard laboratory conditions, animals were drug naive with no prior procedures performed. All testing were performed from 1 to 4 p.m. […]
Development of neuropathic pain in mice: Neuropathic pain in BALB/C mice was induced by intraperitoneal (i.p.) administration of Paclitaxel (PT) at 2 mg/kg for consecutive 5 days (Sci. Rep., 2014, 4, 1). Before paclitaxel injection baseline values of pain threshold for all the animals were recorded. […]
Experimental protocol: The present study was comprised of five experimental groups. […] Pain threshold was assessed using Randall Selitto for assessment of mechanical hyperalgesia at different time points like 0, 5th, 10th, and 15th days post dosing. […]
Randall Selitto Test: The nociceptive withdrawal threshold was assessed by using the Randall-Selitto algesimeter (Analgesy-Meter, Ugo Basile). […]

| SMILES | latency time at 4 h relative to baseline ([1]; 4 h after treatment) | time till which the effect on latency time sustained [1] [h] | mechanical threshold compared with the baseline data [2] |
| --- | --- | --- | --- |
| O=C(O)Cc1ccccc1Nc1c(Cl)cccc1Cl [diclofenac sodium] | comparable to that of baseline data | 3 |  |
| CC(=O)O[C@H]1C(=O)[C@@]2(C)[C@H]([C@H](OC(=O)c3ccccc3)[C@]3(O)C[C@H](OC(=O)[C@H](O)[C@@H](NC(=O)c4ccccc4)c4ccccc4)C(C)=C1C3(C)C)[C@]1(OC(C)=O)CO[C@@H]1C[C@@H]2O [paclitaxel] |  |  | significant reduction in mechanical threshold |

Reference: patent US20250312357A1, “PROCESS OF PHYTOCA[…] FORMULATION AND USE IN THE MANAGEMENT OF PAIN” (COUNCIL OF SCIENTIFIC & INDUSTRIAL RESEARCH, priority 2022, published 2025)
